Tested on: patients after acute myocardial infarction
Assay: Life quality, Seattle Angina Questionnaire (SAQ), same clinical trial
Assay type: in vivo, human
Conditions: FAS; 6 months after treatment
Description: 3508 patients who were in accordance with the diagnostic standards of AMI for 28 days to 2 years and differentiated as Qi deficiency and blood stagnation syndrome by TCM were studied. 0.5 g Chinese medicine composition prepared by the method of EXAMPLE 1 (Coded as QSYQ) was administrated half an hour after meal, 3 times per day.
There were 19 questions in the Seattle angina questionnaire (SAQ), including 5 parts: physical limitation (PL), anginal stability (AS), anginal frequency (AF), treatment satisfaction (TS) and disease perception (DP). After being given necessary explanation by doctors, the questions were answered independently by patients.
They included the overall survival time, angina pectoris score, TCM symptom score and life quality score, where angina pectoris score, TCM symptom score and life quality score were evaluated at randomization, in 1st, 3rd, 6th, 9th, 12th month after treatment and 18th month after follow-up.
All evaluation results of SAQ were described during the period of observation, and Wilcoxon rank sum test was used for inter-group comparison.
The evaluation results in the SAQ were depicted in different observations, and inter-group comparison was tested by Wilcoxon Rank-sum test.

With `CC(=O)Oc1ccccc1C(=O)O` [Control group, aspirine] the “SAQ 4th question, 1-3 times per day: number of patients” value was 82, the “SAQ 4th question, <1 time per week: % of patients” value was “(11.98%)” and the “SAQ 4th question, <1 time per week: number of patients” value was 209. For the same compound, the “SAQ 4th question, Not used: % of patients” value was “(58.37%)”, the “SAQ 4th question, Not used: number of patients” value was 1018 and the “SAQ 4th question, ≧3 times per week: % of patients” value was “(7.28%)”. For the same compound, the “SAQ 4th question, ≧3 times per week: number of patients” value was 127, the “SAQ 4th question, ≧4 times per day: % of patients” value was “(0.11%)” and the “SAQ 4th question, ≧4 times per day: number of patients” value was 2. For the same compound, the “SAQ 5th question, 1-2 times per week: % of patients” value was “(26.38%)”, the “SAQ 5th question, 1-2 times per week: number of patients” value was 460 and the “SAQ 5th question, 1-3 times per day: % of patients” value was “(11.53%)”. For the same compound, the “SAQ 5th question, 1-3 times per day: number of patients” value was 201, the “SAQ 5th question, <1 time per week: % of patients” value was “(28.10%)” and the “SAQ 5th question, <1 time per week: number of patients” value was 490. For the same compound, the “SAQ 5th question, No onset: % of patients” value was “(4.30%)”, the “SAQ 5th question, No onset: number of patients” value was 75 and the “SAQ 5th question, ≧3 times per week: % of patients” value was “(28.84%)”. The “SAQ 5th question, ≧3 times per week: number of patients” value was 503, the “SAQ 5th question, ≧4 times per day: % of patients” value was “(0.86%)” and the “SAQ 5th question, ≧4 times per day: number of patients” value was 15. The “SAQ 6th question, Dissatisfied: % of patients” value was “(0.17%)”, the “SAQ 6th question, Dissatisfied: number of patients” value was 3 and the “SAQ 6th question, Highly satisfied: % of patients” value was “(21.62%)”. The “SAQ 6th question, Highly satisfied: number of patients” value was 377, the “SAQ 6th question, Mostly dissatisfied: % of patients” value was “(1.95%)” and the “SAQ 6th question, Mostly dissatisfied: number of patients” value was 34. For the same compound, the “SAQ 6th question, Mostly satisfied: % of patients” value was “(55.73%)”, the “SAQ 6th question, Mostly satisfied: number of patients” value was 972 and the “SAQ 6th question, Partly satisfied: % of patients” value was “(20.53%)”. For the same compound, the “SAQ 6th question, Partly satisfied: number of patients” value was 358, the “SAQ 7th question, Dissatisfied: % of patients” value was “(0.11%)” and the “SAQ 7th question, Dissatisfied: number of patients” value was 2. The “SAQ 7th question, Highly satisfied: % of patients” value was “(25.03%)”, the “SAQ 7th question, Highly satisfied: number of patients” value was 436 and the “SAQ 7th question, Mostly dissatisfied: % of patients” value was “(1.32%)”. For the same compound, the “SAQ 7th question, Mostly dissatisfied: number of patients” value was 23, the “SAQ 7th question, Mostly satisfied: % of patients” value was “(58.21%)” and the “SAQ 7th question, Mostly satisfied: number of patients” value was 1014. For the same compound, the “SAQ 7th question, Partly satisfied: % of patients” value was “(15.33%)”, the “SAQ 7th question, Partly satisfied: number of patients” value was 267 and the “SAQ Question 1-1 Mildly limited, number of patients” value was 29. For the same compound, the “SAQ Question 1-1 Mildly limited, percent of patients” value was “(1.66%)”, the “SAQ Question 1-1 Moderately limited, number of patients” value was 4 and the “SAQ Question 1-1 Moderately limited, percent of patients” value was “(0.23%)”. For the same compound, the “SAQ Question 1-1 Not limited, number of patients” value was 1638, the “SAQ Question 1-1 Not limited, percent of patients” value was “(93.92%)” and the “SAQ Question 1-1 Other reasons, number of patients” value was 3. For the same compound, the “SAQ Question 1-1 Other reasons, percent of patients” value was “(0.17%)”, the “SAQ Question 1-1 Severely limited, number of patients” value was 1 and the “SAQ Question 1-1 Severely limited, percent of patients” value was “(0.06%)”. For the same compound, the “SAQ Question 1-1 Slightly limited, number of patients” value was 69, the “SAQ Question 1-1 Slightly limited, percent of patients” value was “(3.96%)” and the “SAQ Question 1-2 Mildly limited, number of patients” value was 27. For the same compound, the “SAQ Question 1-2 Mildly limited, percent of patients” value was “(1.55%)”, the “SAQ Question 1-2 Moderately limited, number of patients” value was 8 and the “SAQ Question 1-2 Moderately limited, percent of patients” value was “(0.46%)”. For the same compound, the “SAQ Question 1-2 Not limited, number of patients” value was 1615, the “SAQ Question 1-2 Not limited, percent of patients” value was “(92.60%)” and the “SAQ Question 1-2 Other reasons, number of patients” value was 6. The “SAQ Question 1-2 Other reasons, percent of patients” value was “(0.34%)”, the “SAQ Question 1-2 Severely limited, number of patients” value was 1 and the “SAQ Question 1-2 Severely limited, percent of patients” value was “(0.06%)”. For the same compound, the “SAQ Question 1-2 Slightly limited, number of patients” value was 87, the “SAQ Question 1-2 Slightly limited, percent of patients” value was “(4.99%)” and the “SAQ Question 1-6: Mildly limited, patients (%)” value was “(16.49%)”. For the same compound, the “SAQ Question 1-6: Moderately limited, patients (%)” value was “(11.78%)”, the “SAQ Question 1-6: Not limited, patients (%)” value was “(34.20%)” and the “SAQ Question 1-6: Other reasons, patients (%)” value was “(0.98%)”. The “SAQ Question 1-6: Severely limited, patients (%)” value was “(3.85%)”, the “SAQ Question 1-6: Slightly limited, patients (%)” value was “(32.70%)” and the “SAQ Question 1-7: Mildly limited, patients (%)” value was “(21.23%)”. The “SAQ Question 1-7: Moderately limited, patients (%)” value was “(13.48%)”, the “SAQ Question 1-7: Not limited, patients (%)” value was “(14.52%)” and the “SAQ Question 1-7: Other reasons, patients (%)” value was “(3.53%)”. For the same compound, the “SAQ Question 1-7: Severely limited, patients (%)” value was “(15.33%)” and the “SAQ Question 1-7: Slightly limited, patients (%)” value was “(31.93%)”.

Source: patent US9211310B2, “Use of a Chinese medicine composition in preparing medicaments for treating secondary prevention of myocardial infarction” (TASLY PHARMACEUTICAL GROUP CO., LTD, priority 2010, dated 2015)
